Laboratory results from US4258180A, “C6-Modified cyclodextrin sulfate salts as complement inhibitors” (American Cyanamid Company, priority 1979, dated 1981).
Counter-ions that a name gives are not always drawn.

Assays:
Assay type in all cases: biochemical
activated human C1 = activated human C1 (Homo sapiens, UniProt P09871); test: Test Code 026 (C1 inhibitor); conditions: serial dilution assay, twofold dilutions; higher well number indicates higher activity
Description: (§1) An active inhibitor protects C2 from C1 and C4; (ii) Test Code 035 (C3-C9 inhibitor)--This test determines the ability of the late components of human complement (C3-C9) to lyse EAC 142 in the presence of appropriate dilutions of the test compound. An active inhibitor protects EAC 142 from lysis by human C3-C9; (iii) Test Code 036 (C-Shunt inhibitor)--In this test human erythrocytes rendered fragile are lysed in autologous serum via the shunt pathway activated by cobra venom factor in the presence of appropriate dilutions of the test compound. Inhibition of the shunt pathway results in failure of lysis; (iv) Forssman Vasculitis Test--Here, the well known complement dependent lesion, Forssman Vasculitis, is produced in guinea pigs by intradermal injection of rabbit anti-Forssman antiserum. The lesion is measured in terms of diameter, edema and hemorrhage and the extent to which a combined index of these is inhibited by prior intraperitoneal injection of the test compound at 200 mg/kg is then reported, unless otherwise stated; (v) Forssman Shock Test--Lethal shock is produced in guinea pigs by an i.v. injection of anti-Forssman antiserum and the harmonic mean death time of treated guinea pigs is compared with that of simultaneous controls; (vi) Complement Level Reduction Test--In this test, the above dosed guinea pigs, or others, are bled for serum and the complement level is determined in undiluted serum by the capillary tube method of U.S. Pat. No. 3,876,376 and compared to undosed control guinea pigs; and (vii) Cap 50 Test--Here, appropriate amounts of the test compound are added to a pool of guinea pig serum in vitro, after which the undiluted serum capillary tube assay referred to above is run. The concentration of compound inhibiting 50% is reported.

[1] = test system: late components of human complement (C3-C9); test: Test Code 035 (C3-C9 inhibitor), lysis of EAC 142; conditions: serial dilution assay, twofold dilutions; higher well number indicates higher activity; N = Negative
Description: as §1

shunt pathway = test: Test Code 036 (C-Shunt inhibitor), lysis of fragile human erythrocytes in autologous serum, cobra venom factor; conditions: serial dilution assay, twofold dilutions; higher well number indicates higher activity; N = Negative
Description: as §1

Row | SMILES | 026 Activity in wells (activated human C1) [wells] | 035 Activity in wells [1] | 036 Activity in wells (shunt pathway)
1 | [N-]=[N+]=NC[C@H]1O[C@@H]2O[C@H]3[C@H](OS(=O)(=O)O)[C@@H](OS(=O)(=O)O)[C@@H](O[C@H]4[C@H](OS(=O)(=O)O)[C@@H](OS(=O)(=O)O)[C@@H](O[C@H]5[C@H](OS(=O)(=O)O)[C@@H](OS(=O)(=O)O)[C@@H](O[C@H]6[C@H](OS(=O)(=O)O)[C@@H](OS(=O)(=O)O)[C@@H](O[C@H]7[C@H](OS(=O)(=O)O)[C@@H](OS(=O)(=O)O)[C@@H](O[C@H]1[C@H](OS(=O)(=O)O)[C@H]2OS(=O)(=O)O)O[C@@H]7CN=[N+]=[N-])O[C@@H]6CN=[N+]=[N-])O[C@@H]5CN=[N+]=[N-])O[C@@H]4CN=[N+]=[N-])O[C@@H]3CN=[N+]=[N-] [α-Cyclo[6-azido-6-deoxy]dextrin poly(H-sulfate)poly-sodium s] [6,6',6",6'",6"",6'""-Hexaazido-6,6',6",6'",6"",6'""-hexadeoxy-α-cyclodextrin, dodecakis(H-sulfate), dodecasodium salt] | 7 | 1 wells | 4 wells
2 | [N-]=[N+]=NC[C@H]1O[C@@H]2O[C@H]3[C@H](OS(=O)(=O)O)[C@@H](OS(=O)(=O)O)[C@@H](O[C@H]4[C@H](OS(=O)(=O)O)[C@@H](OS(=O)(=O)O)[C@@H](O[C@H]5[C@H](OS(=O)(=O)O)[C@@H](OS(=O)(=O)O)[C@@H](O[C@H]6[C@H](OS(=O)(=O)O)[C@@H](OS(=O)(=O)O)[C@@H](O[C@H]7[C@H](OS(=O)(=O)O)[C@@H](OS(=O)(=O)O)[C@@H](O[C@H]1[C@H](OS(=O)(=O)O)[C@H]2OS(=O)(=O)O)O[C@@H]7CN=[N+]=[N-])O[C@@H]6CN=[N+]=[N-])O[C@@H]5CN=[N+]=[N-])O[C@@H]4CN=[N+]=[N-])O[C@@H]3CN=[N+]=[N-] [α-Cyclo[6-azido-6-deoxy]dextrin poly(H-sulfate)poly-trimethy] [6,6',6",6'",6"",6'""-Hexaazido-6,6',6",6'",6"",6'""-hexadeoxy-α-cyclodextrin, dodecakis(H-sulfate), dodecasalt with trimethylamine] | 2 | N | N
3 | O=S(=O)(O)O[C@@H]1[C@@H](OS(=O)(=O)O)[C@H]2O[C@H]3[C@H](OS(=O)(=O)O)[C@@H](OS(=O)(=O)O)[C@@H](O[C@H]4[C@H](OS(=O)(=O)O)[C@@H](OS(=O)(=O)O)[C@@H](O[C@H]5[C@H](OS(=O)(=O)O)[C@@H](OS(=O)(=O)O)[C@@H](O[C@H]6[C@H](OS(=O)(=O)O)[C@@H](OS(=O)(=O)O)[C@@H](O[C@H]7[C@H](OS(=O)(=O)O)[C@@H](OS(=O)(=O)O)[C@@H](O[C@@H]1[C@@H](CBr)O2)O[C@@H]7CBr)O[C@@H]6CBr)O[C@@H]5CBr)O[C@@H]4CBr)O[C@@H]3CBr [α-Cyclo[6-bromo-6-deoxy]dextrin poly (H-sulfate)poly-sodium ] [6,6',6",6'",6"",6'""-Hexabromo-6,6',6",6'",6"",6'""-hexadeoxy-α-cyclodextrin dodecakis(H-sulfate), dodecasodium salt] | 6 | 5 wells | 4 wells
4 | O=S(=O)(O)O[C@@H]1[C@@H](OS(=O)(=O)O)[C@H]2O[C@H]3[C@H](OS(=O)(=O)O)[C@@H](OS(=O)(=O)O)[C@@H](O[C@H]4[C@H](OS(=O)(=O)O)[C@@H](OS(=O)(=O)O)[C@@H](O[C@H]5[C@H](OS(=O)(=O)O)[C@@H](OS(=O)(=O)O)[C@@H](O[C@H]6[C@H](OS(=O)(=O)O)[C@@H](OS(=O)(=O)O)[C@@H](O[C@H]7[C@H](OS(=O)(=O)O)[C@@H](OS(=O)(=O)O)[C@@H](O[C@@H]1[C@@H](CBr)O2)O[C@@H]7CBr)O[C@@H]6CBr)O[C@@H]5CBr)O[C@@H]4CBr)O[C@@H]3CBr [α-Cyclo[6-bromo-6-deoxy]dextrin poly(H-sulfate)poly-trimethy] [α-Cyclo[6-bromo-6-deoxy]dextrin poly(H-sulfate)poly-trimethylamine salt] | 2 | 2 wells | N
5 | N#CSC[C@H]1O[C@@H]2O[C@H]3[C@H](OS(=O)(=O)O)[C@@H](OS(=O)(=O)O)[C@@H](O[C@H]4[C@H](OS(=O)(=O)O)[C@@H](OS(=O)(=O)O)[C@@H](O[C@H]5[C@H](OS(=O)(=O)O)[C@@H](OS(=O)(=O)O)[C@@H](O[C@H]6[C@H](OS(=O)(=O)O)[C@@H](OS(=O)(=O)O)[C@@H](O[C@H]7[C@H](OS(=O)(=O)O)[C@@H](OS(=O)(=O)O)[C@@H](O[C@H]1[C@H](OS(=O)(=O)O)[C@H]2OS(=O)(=O)O)O[C@@H]7CSC#N)O[C@@H]6CSC#N)O[C@@H]5CSC#N)O[C@@H]4CSC#N)O[C@@H]3CSC#N [α-Cyclo[6-deoxy-6-thiocyanato]dextrin poly(H-sulfate)poly-so] [6,6',6",6'",6"",6'""-Hexadeoxy-6,6',6",6'",6"",6'""-hexathiocyanato-α-cyclodextrin, dodecakis(H-sulfate), dodecasodium salt] | 7 | 2 wells | 4 wells
6 | N#CSC[C@H]1O[C@@H]2O[C@H]3[C@H](OS(=O)(=O)O)[C@@H](OS(=O)(=O)O)[C@@H](O[C@H]4[C@H](OS(=O)(=O)O)[C@@H](OS(=O)(=O)O)[C@@H](O[C@H]5[C@H](OS(=O)(=O)O)[C@@H](OS(=O)(=O)O)[C@@H](O[C@H]6[C@H](OS(=O)(=O)O)[C@@H](OS(=O)(=O)O)[C@@H](O[C@H]7[C@H](OS(=O)(=O)O)[C@@H](OS(=O)(=O)O)[C@@H](O[C@H]1[C@H](OS(=O)(=O)O)[C@H]2OS(=O)(=O)O)O[C@@H]7CSC#N)O[C@@H]6CSC#N)O[C@@H]5CSC#N)O[C@@H]4CSC#N)O[C@@H]3CSC#N [α-Cyclo[6-deoxy-6-thiocyanato]dextrin poly(H-sulfate)poly-tr] [6,6',6",6'",6"",6'""-Hexadeoxy-6,6',6",6'",6"",6'""-hexathiocyanato-α-cyclodextrin, dodecakis(H-sulfate), dodecasalt with trimethylamine] | 1 | N | N
7 | C[C@H]1O[C@@H]2O[C@H]3[C@H](OS(=O)(=O)O)[C@@H](OS(=O)(=O)O)[C@@H](O[C@H]4[C@H](OS(=O)(=O)O)[C@@H](OS(=O)(=O)O)[C@@H](O[C@H]5[C@H](OS(=O)(=O)O)[C@@H](OS(=O)(=O)O)[C@@H](O[C@H]6[C@H](OS(=O)(=O)O)[C@@H](OS(=O)(=O)O)[C@@H](O[C@H]7[C@H](OS(=O)(=O)O)[C@@H](OS(=O)(=O)O)[C@@H](O[C@H]1[C@H](OS(=O)(=O)O)[C@H]2OS(=O)(=O)O)O[C@@H]7C)O[C@@H]6C)O[C@@H]5C)O[C@@H]4C)O[C@@H]3C [α-Cyclo[6-deoxy]dextrin poly(H-sulfate)poly-sodium salt] [6,6',6",6'",6"",6'""-Hexadeoxy-α-cyclodextrin, dodecakis(H-sulfate), dodecasodium salt] | 8 | 1 wells | 4 wells
8 | C[C@H]1O[C@@H]2O[C@H]3[C@H](OS(=O)(=O)O)[C@@H](OS(=O)(=O)O)[C@@H](O[C@H]4[C@H](OS(=O)(=O)O)[C@@H](OS(=O)(=O)O)[C@@H](O[C@H]5[C@H](OS(=O)(=O)O)[C@@H](OS(=O)(=O)O)[C@@H](O[C@H]6[C@H](OS(=O)(=O)O)[C@@H](OS(=O)(=O)O)[C@@H](O[C@H]7[C@H](OS(=O)(=O)O)[C@@H](OS(=O)(=O)O)[C@@H](O[C@H]1[C@H](OS(=O)(=O)O)[C@H]2OS(=O)(=O)O)O[C@@H]7C)O[C@@H]6C)O[C@@H]5C)O[C@@H]4C)O[C@@H]3C [α-Cyclo[6-deoxy]dextrin poly(H-sulfate)poly-trimethylamine s] [6,6',6",6'",6"",6'""-Hexadeoxy-α-cyclodextrin, dodecakis(H-sulfate), dodecasalt with trimethylamine] | 7 | N | 3 wells
9 | [N-]=[N+]=NC[C@H]1O[C@@H]2O[C@H]3[C@H](OS(=O)(=O)O)[C@@H](OS(=O)(=O)O)[C@@H](O[C@H]4[C@H](OS(=O)(=O)O)[C@@H](OS(=O)(=O)O)[C@@H](O[C@H]5[C@H](OS(=O)(=O)O)[C@@H](OS(=O)(=O)O)[C@@H](O[C@H]6[C@H](OS(=O)(=O)O)[C@@H](OS(=O)(=O)O)[C@@H](O[C@H]7[C@H](OS(=O)(=O)O)[C@@H](OS(=O)(=O)O)[C@@H](O[C@H]8[C@H](OS(=O)(=O)O)[C@@H](OS(=O)(=O)O)[C@@H](O[C@H]1[C@H](OS(=O)(=O)O)[C@H]2OS(=O)(=O)O)O[C@@H]8CN=[N+]=[N-])O[C@@H]7CN=[N+]=[N-])O[C@@H]6CN=[N+]=[N-])O[C@@H]5CN=[N+]=[N-])O[C@@H]4CN=[N+]=[N-])O[C@@H]3CN=[N+]=[N-] [β-Cyclo[6-azido-6-deoxy]dextrin poly(H-sulfate)poly-sodium s] [6,6',6",6'",6"",6'"",6"""-Heptaazido-6,6',6",6'",6"",6'"",6"""-heptadeoxy-β-cyclodextrin, tetradecakis(H-sulfate), tetradecasoium salt] | 6 | 2 wells | 4 wells
